Measured values from ChEMBL document CHEMBL4130610, “Isolation of Flavonoids and Flavonoid Glycosides from Myrsine africana and Their Inhibitory Activities against Mushroom Tyrosinase” (J Nat Prod, 2018).

What was measured:
Tyrosinase [1] = target: T1, Tyrosinase (Agaricus bisporus, UniProt O42713); experiment: Inhibition of mushroom tyrosinase using L-tyrosine as substrate pretreated for 5 mins followed by substrate addition measured over 30 mins by spectrophotometric method
T1 sequence (O42713 whole entry): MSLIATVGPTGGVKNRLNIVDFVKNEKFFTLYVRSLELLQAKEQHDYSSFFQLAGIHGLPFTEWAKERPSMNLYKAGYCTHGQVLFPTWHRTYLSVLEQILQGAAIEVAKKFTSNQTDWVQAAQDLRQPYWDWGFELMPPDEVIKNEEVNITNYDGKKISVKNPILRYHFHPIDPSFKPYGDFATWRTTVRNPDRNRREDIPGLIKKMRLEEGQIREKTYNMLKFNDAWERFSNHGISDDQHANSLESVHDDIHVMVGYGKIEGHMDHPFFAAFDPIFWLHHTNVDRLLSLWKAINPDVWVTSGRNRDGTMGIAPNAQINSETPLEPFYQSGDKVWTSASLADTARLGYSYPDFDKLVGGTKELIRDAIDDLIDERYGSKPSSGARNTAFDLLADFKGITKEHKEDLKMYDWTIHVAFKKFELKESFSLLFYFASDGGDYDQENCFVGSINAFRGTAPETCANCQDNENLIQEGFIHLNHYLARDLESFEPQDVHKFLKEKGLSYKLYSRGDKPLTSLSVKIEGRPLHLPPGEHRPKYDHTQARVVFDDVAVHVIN

Tyrosinase [2] = target: T1, Tyrosinase; experiment: Inhibition of mushroom tyrosinase using L-DOPA as substrate measured at 1 min interval by spectrophotometric method
Tyrosinase [3] = target: T1, Tyrosinase; experiment: Inhibition of mushroom tyrosinase

What does the source list for C[C@@H]1O[C@@H](OC[C@H]2O[C@@H](Oc3c(-c4ccc(O)c(O)c4)oc4cc(O)cc(O)c4c3=O)[C@H](O)[C@@H](O)[C@@H]2O)[C@H](O)[C@H](O)[C@H]1O [RUTIN]?
IC50 (Tyrosinase [1]): 130 µM; IC50 (Tyrosinase [2]): 70 µM

With O=c1c(O)c(-c2ccc(O)c(O)c2)oc2cc(O)cc(O)c12 [QUERCETIN] as the compound, how does the IC50 (Tyrosinase [1]) read?
Its IC50 is 240 µM.

How did the IC50 (Tyrosinase [1]) turn out when C[C@@H]1O[C@@H](Oc2c(-c3ccc(O)c(O)c3)oc3cc(O)cc(O)c3c2=O)[C@H](O)[C@H](O)[C@H]1O [QUERCITRIN] was run?
The IC50 was 150 µM.

And the IC50 (Tyrosinase [3])?
The IC50 was 100 µM.

With CC(=O)O[C@@H]1[C@@H](O)[C@@H](O)[C@H](Oc2c(-c3cc(O)c(O)c(O)c3)oc3cc(O)cc(O)c3c2=O)O[C@H]1C as the compound, how does the IC50 (Tyrosinase [1]) read?
The IC50 was 280 µM.

For COc1c(O)cc(-c2oc3cc(O)cc(O)c3c(=O)c2O[C@@H]2O[C@@H](C)[C@H](OC(C)=O)[C@@H](O)[C@H]2O)cc1O, which IC50 (Tyrosinase [1]) is on record?
Its IC50 is 190 µM.

Which IC50 (Tyrosinase [1]) does the source give for CC(=O)O[C@@H]1[C@@H](OC(C)=O)[C@@H](O)[C@H](Oc2c(-c3cc(O)c(O)c(O)c3)oc3cc(O)cc(O)c3c2=O)O[C@H]1C here?
The IC50 was 180 µM.

Which IC50 (Tyrosinase [1]) does the source give for C[C@@H]1O[C@@H](Oc2c(-c3cc(O)c(O)c(O)c3)oc3cc(O)cc(O)c3c2=O)[C@H](O)[C@H](O)[C@H]1O here?
The IC50 was 120 µM.

What about the IC50 (Tyrosinase [3]) of the same compound?
The IC50 was 320 µM.

COc1c(O)cc(-c2oc3cc(O)cc(O)c3c(=O)c2O[C@@H]2O[C@@H](C)[C@H](O)[C@@H](O)[C@H]2O)cc1O was tested. Which IC50 (Tyrosinase [1]) did it give?
The IC50 was 310 µM.

With CC(=O)O[C@@H]1[C@@H](O)[C@@H](OC(C)=O)[C@H](Oc2c(-c3cc(O)c(O)c(O)c3)oc3cc(O)cc(O)c3c2=O)O[C@H]1C as the compound, how does the IC50 (Tyrosinase [1]) read?
The IC50 was 520 µM.

For OC[C@H]1O[C@@H](Oc2c(O)cc(O)cc2O)[C@H](O)[C@@H](O)[C@@H]1O, which IC50 (Tyrosinase [1]) is on record?
The IC50 was 410 µM.
